Test results taken from patent publication US8642784B2, “Biologically active compound N-[3-(4-nitrophenylamino)-indole-2-ilmethylene]aminoguanidine hydrochloride with anti-inflammatory activity” (priority 2010, dated 2014).
Where two headings read alike, the source gives them in different places. Marks after values point to notes of the source that are not given here.

Columns and labels:
[1] = system: constitutive forms of NO-synthase; conditions: compared with L-NMMA; cited from earlier work
mice stomach [2] = assay: Aggravation of ulcerogenic effects by 0.6H hydrochloric acid; assay type: in vivo; conditions: compound 2 100 mg/kg, indomethacin 20 mg/kg, voltaren 50 mg/kg, aminoguanidine 200 mg/kg, 1 hour before 0.6H HCl 5 ml/kg, after 4 hours
Method: (§1) Studies were performed according to the following scheme: • 1. […] Study of the compounds' ulcerogenic action using pharmaceutical dose during 7 days of administration. • 3. Aggravation of ulcerogenic effects of studied compounds by 0.6H hydrochloric acid. • 4. Aggravation of ulcerogenic effects of studied compounds by the known NSAIDs (indomethacin). 1.
(§2) Ulcerogenic effect was assessed using 4-point scale: 0—no damage; 0.5—hyperemia; 1—insignificant damage (1 or 2 small bleedings); 2—multiple damage (erosions, small bleedings); 3—significant and multiple damage (erosions, bleedings); 4—severe damage, affecting all gastric mucosa (massive bleedings, erosions, perforations).
(§3) Male mice with body mass 23-24 g were deprived of food for 24 hours, water access was not limited.
(§4) Drugs of comparison: indomethacin 20 mg/kg, voltaren—50 mg/kg and aminoguanidine—200 mg/kg. Each test group had 10 animals.

mice stomach [3] = assay: Aggravation of ulcerogenic effect by indomethacin; assay type: in vivo; conditions: mice; compound 2 100 mg/kg, voltaren 50 mg/kg, aminoguanidine 200 mg/kg, 1 hour before indomethacin 20 mg/kg; after 5 hours
Method: as §1, §2, §3
Drugs of comparison: voltaren—50 mg/kg and aminoguanidine—200 mg/kg. Each test group had 10 animals.

mice stomach [4] = assay type: in vivo; conditions: for Average ulcerogenic index (4-point scale) of chronic administration of pharmacological dose: mice, per os 7 days, compound 2 200 mg/kg, indomethacin 20 mg/kg, voltaren 50 mg/kg, aminoguanidine 200 mg/kg; for Ulcerogenic effects of drugs of comparison: mice ulceration models, summary of table 4
Method: as §1, §2
After 7 days the animals were sacrificed by CO2, their stomachs extracted and the number of ulcers counted.
as §4

[5] = system: LPS-induced peritonitis in mice; assay: LPS-induced peritonitis in mice, volume of exudate; assay type: in vivo
Method: Activity was studies using the methods listed in “Methodical recommendations on experimental (preclinical) research of new nonsteroidal anti-inflammatory drugs” for new compounds screening, in animal models of peritonitis induced by lipopolysaccharide (LPS) and carrageenan.
Anti-exudative action was studied in male mice with body mice 22.0-23.0 g. Peritonitis was induced by intraperitoneal administration of lipopolysaccharide (LPS), produced from Escherichia coli (Sigma) 1.0 mg/kg, as described in [6]: after 4 hours the animals were sacrificed by CO2, their peritoneal cavity opened and the volume of exudate was measured in ml. Studied compounds and drugs of comparison were administered per os one hour before LPS, control group was composed of mice receiving 0.3 ml of saline before LPS administration. Each group had 10 animals.
(§5) The results were processed using variation statistics methods for biological research (mean standard error, means were calculated using Student's t-distribution).

[6] = system: LPS-induced peritonitis in rats; assay: LPS-induced peritonitis in rats, volume of exudate; assay type: in vivo; conditions: rats; for ED50: LPS-induced peritonitis, per os
Method: Anti-exudative action was studied in male rate with body mass 170.0-180.0 g. Peritonitis was induced by intraperitoneal administration of lipopolysaccharide (LPS), produced from Escherichia coli (Sigma)—1.0 mg/kg as described in [6]: after 4 hours the animals were sacrificed by CO2, their peritoneal cavity opened and the volume of exudate was measured in ml. Studied compounds and drugs of comparison were administered per os one hour before LPS, control group was composed of rats receiving 0.3 ml of saline before LPS administration. Each group had 7 animals.
as §5

[7] = system: carrageenan-induced peritonitis in mice; assay: Carrageenan-induced peritonitis in mice, volume of exudate; assay type: in vivo
Method: Research was carried out by a method described in [5]. Experiments were performed using male mice with body mass 23-24 g, in groups of 10 animals. […] The results were processed using variation statistics methods for biological research (mean standard error, means were calculated using Student's t-distribution).

animal models = conditions: in vivo; cited from earlier work
[8] = biological target: inducible isoenzymes of NO-synthase (Homo sapiens, UniProt P35228); conditions: most in vitro systems; cited from earlier work

Row | Structure (SMILES) | Average ulcerogenic index (4-point scale) of combining the studied compounds with hydrochloric acid (mice stomach [2]) | Average ulcerogenic index (4-point scale) of combining the studied compounds with indomethacin (mice stomach [3]) | Average ulcerogenic index (4-point scale) of chronic administration of pharmacological dose (mice stomach [4]) | Anti-inflammatory activity in LPS-induced peritonitis model, % of control ([5]; 50.0 mg/kg per os) | Anti-inflammatory activity in LPS-induced peritonitis model, % of control ([5]; 100.0 mg/kg per os) | Anti-inflammatory activity in LPS-induced peritonitis model, % of control ([6]; 25.0 mg/kg per os) | Anti-inflammatory activity in LPS-induced peritonitis model, % of control ([6]; 50.0 mg/kg per os) | Anti-inflammatory activity in LPS-induced peritonitis model, % of control ([6]; 75.0 mg/kg per os) | Anti-inflammatory activity in carrageenan-induced peritonitis model, % of control ([7]; 50.0 mg/kg per os) | Anti-inflammatory activity in carrageenan-induced peritonitis model, % of control ([7]; 100.0 mg/kg per os) | Ulcerogenic effects of drugs of comparison (mice stomach [4]) | other results
1 | N=C(N)NN [Aminoguanidine, N-aminoguanidine] | 0.15 | 0.19 | 0 | 51.1* % of control | 73.3* % of control | 4.0 % of control | 22.0* % of control | 58.0* % of control | 25.5* % of control | 70.6* % of control |  | Activity towards constitutive forms of NO-synthase [1]: much less active towards constitutive forms; Anti-inflammatory activity in LPS-induced peritonitis model, % of control ([5]; 200.0 mg/kg per os): 91.1* % of control; Anti-inflammatory activity in LPS-induced peritonitis model, % of control ([6]; 100.0 mg/kg per os): 78.0* % of control; Anti-inflammatory activity in LPS-induced peritonitis model, % of control ([6]; 200.0 mg/kg per os): 100.0* % of control; ED50 [6]: 70.0 ± 2.5 mg/kg; Anti-inflammatory activity in carrageenan-induced peritonitis model, % of control ([7]; 200.0 mg/kg per os): 84.3* % of control; Effect in animal models of inflammation, septic shock, endotoxin (animal models): reduces the severity of inflammation and septic shock, improves survival during endotoxin administration; Inhibition of inducible isoenzymes of NO-synthase [8]: equally effective in inhibiting inducible isoenzymes
2 | COc1ccc2c(c1)c(CC(=O)O)c(C)n2C(=O)c1ccc(Cl)cc1 [Indomethacin, indomethacin] | 2.4 |  | 1.15 |  |  |  |  |  |  |  | had ulcerogenic effects | 
3 | O=C(O)Cc1ccccc1Nc1c(Cl)cccc1Cl [Voltaren, sodium diclofenac] | 0.55 | 2.5 | 0.35 | 95.6* % of control | 100.0* % of control | 65.0* % of control | 84.0* % of control | 100.0* % of control | 90.2* % of control | 100.0* % of control | had ulcerogenic effects | Anti-inflammatory activity in LPS-induced peritonitis model, % of control ([5]; 25.0 mg/kg per os): 82.2* % of control; ED50 ([6]; Rattus norvegicus, po, read-out: ED50): 20 ± 1.5 mg/kg; Anti-inflammatory activity in LPS-induced peritonitis model, % of control ([6]; 10.0 mg/kg per os): 22.0 % of control; Anti-inflammatory activity in carrageenan-induced peritonitis model, % of control ([7]; 25.0 mg/kg per os): 80.4* % of control
